In this data set the test system is rodent carcinogenicity bioassays, tumor incidence. Briefly: CCRIS carcinogenicity studies. The settings on record: Dose: 0, Dose: 0. Summed up:
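Archive of carcinogenicity, mutagenicity, tumor promotion and tumor inhibition results drawn from journals, NCI reports and other sources, expert-reviewed; covers 1985-2011 and is no longer updated.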

The source made the active and inactive calls. No rule for the calls is given here.

For the compound `CC(C)(c1ccc(O)cc1)c1ccc(O)cc1` (tested in a mixture with another compound), the carcinogen call was “active; positive” (Species: MOUSE, Strain/Sex: CF-1/FEMALE, Route: DERMAL, 1, 10% EPIKOTE 828 IN ACETONE (TOTAL DOSE 0.2 ML) 2/WK APPLIED TO DORSAL SKIN FOR DURATION OF STUDY (STUDY DURATION:, 1, 10% EPIKOTE 828 IN ACETONE (TOTAL DOSE 0.2 ML) 2/WK APPLIED TO DORSAL SKIN FOR DURATION OF STUDY (STUDY DURATION:, Tumor Site: Type of Lesion: HEMATOPOIETIC SYSTEM: RETICULUM-CELL SARCOMA, LYMPHOBLASTIC LYMPHOSARCOMA); “inactive; negative” (Species: MOUSE, Strain/Sex: CF-1/FEMALE, Route: DERMAL, 1, 10% EPON 828 IN ACETONE (TOTAL DOSE 0.2 ML) 2/WK APPLIED TO DORSAL SKIN FOR DURATION OF STUDY (STUDY DURATION: 2 Y, 1, 10% EPON 828 IN ACETONE (TOTAL DOSE 0.2 ML) 2/WK APPLIED TO DORSAL SKIN FOR DURATION OF STUDY (STUDY DURATION: 2 Y); “inactive; negative” (Species: MOUSE, Strain/Sex: CF-1/MALE, Route: DERMAL, 1, 10% EPIKOTE 828 IN ACETONE (TOTAL DOSE 0.2 ML) 2/WK APPLIED TO DORSAL SKIN FOR DURATION OF STUDY (STUDY DURATION:, 1, 10% EPIKOTE 828 IN ACETONE (TOTAL DOSE 0.2 ML) 2/WK APPLIED TO DORSAL SKIN FOR DURATION OF STUDY (STUDY DURATION:); “inactive; negative” (Species: MOUSE, Strain/Sex: CF-1/MALE, Route: DERMAL, 1, 10% EPON 828 IN ACETONE (TOTAL DOSE 0.2 ML) 2/WK APPLIED TO DORSAL SKIN FOR DURATION OF STUDY (STUDY DURATION: 2 Y, 1, 10% EPON 828 IN ACETONE (TOTAL DOSE 0.2 ML) 2/WK APPLIED TO DORSAL SKIN FOR DURATION OF STUDY (STUDY DURATION: 2 Y).
For `CCCNN`, the carcinogen call is “active; positive” (Species: MOUSE, Strain/Sex: SWISS/FEMALE, Route: ORAL, 0.025% SOLUTION IN DRINKING WATER DAILY FOR LIFE FOR AND AVERAGE DAILY INTAKE OF 0, 3.0 MG (STUDY DURATION: 100 WK), 0.025% SOLUTION IN DRINKING WATER DAILY FOR LIFE FOR AND AVERAGE DAILY INTAKE OF 0, 3.0 MG (STUDY DURATION: 100 WK), Tumor Site: Type of Lesion: LUNG: ADENOMA, LUNG: ADENOMA OR ADENOCARCINOMA) and “active; positive” (Species: MOUSE, Strain/Sex: SWISS/MALE, Route: ORAL, 0.025% SOLUTION IN DRINKING WATER DAILY FOR LIFE FOR AN AVERAGE DAILY INTAKE OF 0, 2.9 MG (STUDY DURATION: 100 WK), 0.025% SOLUTION IN DRINKING WATER DAILY FOR LIFE FOR AN AVERAGE DAILY INTAKE OF 0, 2.9 MG (STUDY DURATION: 100 WK), Tumor Site: Type of Lesion: LUNG: ADENOMA, LUNG: ADENOMA OR ADENOCARCINOMA).
For the compound `NNC(N)=S`, the carcinogen call by setting is: (Species: MOUSE, Strain/Sex: SWISS/FEMALE, Route: ORAL, 156, 312 PPM IN DRINKING WATER DAILY FOR LIFE (STUDY DURATION: 130-140 WK), 156, 312 PPM IN DRINKING WATER DAILY FOR LIFE (STUDY DURATION: 130-140 WK)) “inactive; negative”; (Species: MOUSE, Strain/Sex: SWISS/MALE, Route: ORAL, 156, 312 PPM IN DRINKING WATER DAILY FOR LIFE (STUDY DURATION: 130-140 WK), 156, 312 PPM IN DRINKING WATER DAILY FOR LIFE (STUDY DURATION: 130-140 WK)) “inactive; negative”.
On to `CC1CN(N=O)C(=O)NC1=O` (stereo unspecified), for which the carcinogen call was “inactive; negative” (Species: RAT, Strain/Sex: MRC-WISTAR/FEMALE, Route: ORAL, 10 G TOTAL DOSE IN CITRATE BUFFER IN DRINKING WATER 5D/WK FOR 12 MO (STUDY DURATION: 2 YR)) and “inactive; negative” (Species: RAT, Strain/Sex: MRC-WISTAR/MALE, Route: ORAL, 1 G TOTAL DOSE IN CITRATE BUFFER IN DRINKING WATER 5D/WK FOR 12 MO (STUDY DURATION: 2 YR)).
Turning to `NS(=O)(=O)c1cc2c(cc1Cl)NCNS2(=O)=O`, the carcinogen call is “inactive; negative” (Species: MOUSE, Strain/Sex: B6C3F1/FEMALE, Route: ORAL, 2500, 5000 PPM IN FEED FOR 103-104 WK (STUDY DURATION: 106 WK), 2500, 5000 PPM IN FEED FOR 103-104 WK (STUDY DURATION: 106 WK)); “equivocal” (Species: MOUSE, Strain/Sex: B6C3F1/MALE, Route: ORAL, 2500, 5000 PPM IN FEED FOR 103-104 WK (STUDY DURATION: 106 WK), 2500, 5000 PPM IN FEED FOR 103-104 WK (STUDY DURATION: 106 WK), Tumor Site: Type of Lesion: LIVER: HEPATOCELLULAR ADENOMA OR CARCINOMA); “inactive; negative” (Species: RAT, Strain/Sex: F344/FEMALE, Route: ORAL, 0.1% IN DIET FOR 104 WK (STUDY DURATION: 130 WK)); “inactive; negative” (Species: RAT, Strain/Sex: F344/FEMALE, Route: ORAL, 250, 500, 2000 PPM IN FEED FOR 105-106 WK (STUDY DURATION: 106 WK), 250, 500, 2000 PPM IN FEED FOR 105-106 WK (STUDY DURATION: 106 WK)); “inactive; negative” (Species: RAT, Strain/Sex: F344/MALE, Route: ORAL, 0.1% IN DIET FOR 104 WK (STUDY DURATION: 130 WK)); “inactive; negative” (Species: RAT, Strain/Sex: F344/MALE, Route: ORAL, 250, 500, 2000 PPM IN FEED FOR 105-106 WK (STUDY DURATION: 106 WK), 250, 500, 2000 PPM IN FEED FOR 105-106 WK (STUDY DURATION: 106 WK)).
Consider `O=C1C(c2[nH]c3ccc(S(=O)(=O)O)cc3c2O)=Nc2ccc(S(=O)(=O)O)cc21`, for which the carcinogen call runs as follows: (Species: DOG, Strain/Sex: BEAGLE/MALE, FEMALE, Route: ORAL, 1, 2% IN DIET FOR 2 YR, 1, 2% IN DIET FOR 2 YR) “inactive; negative”; (Species: MOUSE, Strain/Sex: C3H AND C57/MALE, FEMALE, Route: SUBCUTANEOUS, 2.5 MG AS A 1% AQUEOUS SOLUTION 1/WK FOR 2 YR) “inactive; negative”; (Species: MOUSE, Strain/Sex: CD-1/FEMALE, Route: ORAL, 0.5, 1.5, 5% IN DIET FOR 23 MO (STUDY DURATION: 24 MO), 0.5, 1.5, 5% IN DIET FOR 23 MO (STUDY DURATION: 24 MO)) “inactive; negative”; (Species: MOUSE, Strain/Sex: CD-1/MALE, Route: ORAL, 0.5, 1.5, 5% IN DIET FOR 22 MO (STUDY DURATION: 24 MO), 0.5, 1.5, 5% IN DIET FOR 22 MO (STUDY DURATION: 24 MO)) “inactive; negative”; (Species: RAT, Strain/Sex: OSBORNE-MENDEL/MALE, FEMALE, Route: ORAL, 0.5, 1.0, 2.0, 5.0% IN DIET FOR 2 YR, 0.5, 1.0, 2.0, 5.0% IN DIET FOR 2 YR) “inactive; negative”; (Species: RAT, Strain/Sex: OSBORNE-MENDEL/MALE, FEMALE, Route: SUBCUTANEOUS, 20 MG AS A 2% AQUEOUS SOLUTION 1/WK FOR 2 YR, Tumor Site: Type of Lesion: INJECTION SITE: FIBROSARCOMA) “active; positive”. Moreover, the carcinogen call was “inactive; negative” (Species: RAT, Strain/Sex: STRAIN-CD/FEMALE, Route: ORAL, 0.5, 1, 2% IN DIET FOR 30 MO TO ANIMALS ALSO EXPOSED IN UTERO THROUGH THE SAME DOSES ADMINISTERED TO PARENTS BEGINNIN, 0.5, 1, 2% IN DIET FOR 30 MO TO ANIMALS ALSO EXPOSED IN UTERO THROUGH THE SAME DOSES ADMINISTERED TO PARENTS BEGINNIN) and “inactive; negative” (Species: RAT, Strain/Sex: STRAIN-CD/MALE, Route: ORAL, 0.5, 1, 2% IN DIET FOR 29 MO TO ANIMALS ALSO EXPOSED IN UTERO THROUGH THE SAME DOSES ADMINISTERED TO PARENTS BEGINNIN, 0.5, 1, 2% IN DIET FOR 29 MO TO ANIMALS ALSO EXPOSED IN UTERO THROUGH THE SAME DOSES ADMINISTERED TO PARENTS BEGINNIN).
Take `CCN(CC(=O)O)N=O`: the carcinogen call reads like this: (Species: MOUSE, Strain/Sex: BALB/C/MALE, Route: ORAL, 1000, 2000 PPM IN DRINKING WATER FOR 2 WK (STUDY DURATION: 52 WK), 1000, 2000 PPM IN DRINKING WATER FOR 2 WK (STUDY DURATION: 52 WK)) “inactive; negative”; (Species: RAT, Strain/Sex: WISTAR/MALE, Route: ORAL, 1000, 2000 PPM IN DRINKING WATER FOR 2 WK (STUDY DURATION: 52 WK), 1000, 2000 PPM IN DRINKING WATER FOR 2 WK (STUDY DURATION: 52 WK)) “inactive; negative”.

The record behind these values is PubChem BioAssay AID1259411 (Chemical Carcinogenesis Research Information System (CCRIS), 2018).
